The structures appear in SMILES notation. Converted amounts (≈) assume the structure as drawn. Where two headings read alike, the source gives them in different places.

The record followed here is article PMC9143821, “Design and Synthesis of a Novel 4-aryl-N-(2-alkoxythieno [2,3-b]pyrazine-3-yl)-4-arylpiperazine-1-carboxamide DGG200064 Showed Therapeutic Effect on Colon Cancer through G2/M Arrest” (Pharmaceuticals, 2022).

One data set can be described thus: Solubility (logS). Type of data set: physicochemical. To be noted: for solubility: thermodynamic from solid, read-out: Solubility (logS) Equilibrium (converted). The source says: (§1) Table 4 Physicochemical Properties of the Lead Compounds 7c. | column: 7c
Another data set relates to HCT15. Kind of data set: SRB assay, colon cancer cell growth inhibition. It is filed as cell-based. To be noted: Homo sapiens, HCT-15, 48 h. The protocol: (§2) A series of 4-phenyl-N-(thieno[2,3-b]pyrazin-3-yl)piperazine-1-carboxamides derivatives 7a–7i were tested for the colon cancer cell growth inhibition effect using the SRB assay (Table 2). […] Compounds 7a and 7b, containing chlorine at the C6 position of thieno[2,3-b]pyrazine ring, have weaker anticancer activity than its proton-containing derivatives 7c–7i. On the other hand, 7c has shown higher inhibition activity than 7d with methyl substituents at the C3 and C5 positions of the phenyl ring. […] Substitutions with one fluorine atom in the phenyl ring could not improve the inhibition effect of the compounds 7g–7h.
(§3) The HCT116, HCT8, KM12, HCT15, HT29, COLO-205, SW620 cell line was obtained from the National Cancer Institute (Material Transfer Agreement number: 2702–09). DLD1 cell line was obtained from the Korean cell line bank. Cells were cultured in complete Roswell Park Memorial Institute (RPMI) 1640 medium (Hyclone, South Logan, UT, USA) containing 10% fetal bovine serum (Hyclone, South Logan, UT, USA) in an atmosphere of 5% CO2 and 100% humidity at 37 °C. A small interfering RNA (siRNA) duplex targeting human c-Jun and FBXW7 (Genolution, Seoul, Korea) were introduced into cells using Lipofector-EXT (AptaBio, Yongin, Korea), according to the manufacturer’s instructions. As negative controls, cells were incubated with Lipofector-EXT (AptaBio, Yongin, KOR) and a negative siRNA (Genolution, Seoul, Korea).
(§4) Cells (100 μL containing 5000–10,000 cells/well) were incubated in 96 well microtiter plates. After 24 h, drugs were added (100 μL) to each well and the cultures were incubated for 48 h at 37 °C. The cells were then fixed in TCA (50 μL per well). The plates were incubated for a minimum of 1 h or a maximum of 3 h at 4 °C. The liquid was removed from the plate, which was then rinsed five times with water and allowed to dry at room temperature (rt) for approximately 12–24 h. The fixed cells were stained with 100 μL Sulforhodamine B (SRB) solution for 5 min at rt. After staining, the plate was washed three times with 1% glacial acetic acid and dried at rt for approximately 12–24 h. The SRB was then solubilized in 10 mM Tris buffer, and the absorbance was read at 515 nm. The effect of the drugs was expressed as GI50 (50% growth inhibition).

The subject of the next data set is KM12. The data set can be described thus: SRB assay, colon cancer cell growth inhibition. Type of data set: cell-based. As to conditions: Homo sapiens, 48 h. The protocol: as §2, §3, §4
(In SRB staining, fixed cells bind dye roughly in proportion to their protein.)

In a further data set the test system is HCT8. Kind of data set: SRB assay, colon cancer cell growth inhibition. It is filed as cell-based. As to conditions: Homo sapiens, HCT-8, 48 h. The protocol: as §2, §3, §4
The subject of a further data set is Colo205. The data set can be described thus: SRB assay, colon cancer cell growth inhibition. Type of data set: cell-based. As to conditions: Homo sapiens, COLO 205, 48 h. The protocol:
as §2, §3, §4

A further data set deals with HCT116. The data set can be described thus: SRB assay, colon cancer cell growth inhibition. To be noted: Homo sapiens, HCT-116; HCT116, SRB, 48 h. Type of data set: cell-based. The protocol: as §2, §3, §4
The test system of the next data set is SW620. The data set can be described thus: SRB assay, colon cancer cell growth inhibition. Type of data set: cell-based. As to conditions: Homo sapiens, SW-620, 48 h. The protocol:
as §2, §3, §4

A further data set has as its system HT29. The data set can be described thus: SRB assay, colon cancer cell growth inhibition. It is filed as cell-based. As to conditions: Homo sapiens, HT-29, 48 h. The protocol:
as §2, §3, §4

Another data set can be described thus: Permeability. It is filed as in vitro ADME.
Text: as §1

Turning to `COc1cc(OC)cc(N2CCN(C(=O)Nc3nc4sccc4nc3OC)CC2)c1` [Compound 7c, 4-(3,5-Dimethoxyphenyl)-N-(2-methoxythieno[2,3-b]pyrazin-3-yl)piperazine-1-carboxamide], the solubility in “Solubility (logS)” (pH 2, aqueous buffer, pH2.0) is 2090 µM (≈ 897 µg/mL); in “Solubility (logS)” (pH 7.4, aqueous buffer, pH7.4), 603 µM (≈ 259 µg/mL); in the data set “Solubility (logS)” (pH 9, aqueous buffer, pH9.0) it was 617 µM (≈ 265 µg/mL). This compound also gave a solubility (kinetic) in “Solubility (logS)” (pH 7.4, aqueous buffer, kinetic from dmso stock, pH7.4) of 741 µM (≈ 318 µg/mL). Further, the GI50 with HCT15 came to 26 nM; with KM12 it was 8 nM; with HCT8, 54 nM; in the data set with Colo205, 24 nM; with HCT116, 12 nM; in the data set with SW620, 27 nM. Moreover, in the data set on HT29, the GI50 stood at 17 nM. Also, the “Permeability Class” value in “Permeability” is given as “High”. For the same compound, the Papp in the data set “Permeability” (PAMPA, read-out: Permeability Pe) amounted to 29.5 ×10⁻⁶ cm/s.

One may read the solubility as the dissolved amount per volume that the medium holds. One may read the kinetic solubility as the concentration staying in solution when a stock, usually in DMSO, is diluted into the medium. Usually GI50 stands for the concentration that inhibits growth by half.
